Results taken from BindingDB's records for doi:10.1016/S0960-894X(00)80421-7 (1992).

Experiment: Tested for the ability to inhibit Ins(1,4,5)P 3-phosphatase

Question: Which Ki does the source give for `OC1C(O)C(OP(O)(O)=S)C(OP(O)(O)=S)C(O)C1OP(O)(O)=S` (stereo not drawn) [(-)-chiro-inositol 1,4,6-trisphosphorothioate] here?
Answer: Its Ki is 978 µM.
